Reference: US20240251792A1, “WEED CONTROL METHOD” (SYNGENTA CROP PROTECTION AG, priority 2021, published 2024)
Where two headings read alike, the source gives them in different places.

How the values were obtained:
Format in all cases: in vivo
DIGSA [1] = experiment: Biological efficacy, pre-emergence glasshouse test (Table 2); conditions: 1000 g/ha, after 12 days
Procedure: (§1) Seeds of a variety of test species were shown in unsterilised compost in small pots. After cultivation for one day (pre-emergence) or seven days (post-emergence) in controlled conditions in the glasshouse (at 24/16° C., day/night; 14 hours light; 65% humidity) the plants were sprayed with 1 mg of the active ingredient, formulated in 466 μl of a acetone/water/Tween 20 (49.75:49.75:0.5) solution, which is equivalent to 1000 g/ha. Once the foliage was dry, the pots were kept in the glasshouse (at 24/16° C., day/night; 14 hours light; 65% humidity), and were watered twice daily. After 12 days the test was evaluated and scored (100=total damage to plant, 0=no damage to plant).

STEME [2] = experiment: as above; conditions: 1000 g/ha, after 12 days
Procedure: as §1

AMARE [3] = experiment: as above; conditions: 1000 g/ha, after 12 days
Procedure: as §1

LOLPE [4] = experiment: as above; conditions: 1000 g/ha, after 12 days
Procedure: as §1

DIGSA [5] = experiment: Biological efficacy, post-emergence glasshouse test (Table 2); conditions: 1000 g/ha, after 12 days
Procedure: as §1

STEME [6] = experiment: as above; conditions: 1000 g/ha, after 12 days
Procedure: as §1

AMARE [7] = experiment: as above; conditions: 1000 g/ha, after 12 days
Procedure: as §1

LOLPE [8] = experiment: as above; conditions: 1000 g/ha, after 12 days
Procedure: as §1

weeds and/or crops = experiment: Post-emergence biological efficacy (Table 4); conditions: 1000 g/ha, evaluated after 13 days; for pest or weed control at 1000 g/ha: 312 h
Summary of the method: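 Weeds and crops were grown 14 days in a glasshouse, then sprayed post-emergence with compound formulated in acetone/F50 and diluted in 0.2% Genapol X080 to the final dose. Damage was scored after 13 days on a 0–100 scale, where 100 is total damage.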

ABUTH = experiment: Pre-emergence biological efficacy (Table 3); conditions: after 13 days; for pest or weed control at 1000 g/ha: Abutilon theophrasti, 312 h, read-out: evaluation (100=total damage to plant; 0=no damage to plant)
Summary of the method: (§2)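 After sowing in pots and one day of glasshouse cultivation, spray is applied at the desired dose from a 50 g/l acetone/AMA stock diluted in 0.2% Genapol X080. Plants grow at 24/18 °C, 15 h light, 50% humidity, and damage is rated 0–100 after 13 days.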

ECHCG = experiment: Pre-emergence biological efficacy (Table 3); conditions: 1000 g/ha, after 13 days; for pest or weed control at 1000 g/ha: Echinochloa crus-galli, 312 h, read-out: evaluation (100=total damage to plant; 0=no damage to plant)
Summary of the method: as §2

ZEAMX = experiment: Pre-emergence biological efficacy (Table 3); conditions: 1000 g/ha, after 13 days; for plant injury at 1000 g/ha: 312 h, read-out: evaluation (100=total damage to plant; 0=no damage to plant)
Summary of the method: as §2

STEME [9] = experiment: Pre-emergence biological efficacy (Table 3); conditions: after 13 days; for pest or weed control at 1000 g/ha: 312 h, read-out: evaluation (100=total damage to plant; 0=no damage to plant)
Summary of the method: as §2

IPOHE = experiment: Pre-emergence biological efficacy (Table 3); conditions: 1000 g/ha, after 13 days; for pest or weed control at 1000 g/ha: Ipomoea hederacea, 312 h, read-out: evaluation (100=total damage to plant; 0=no damage to plant)
Summary of the method: as §2

AMARE [10] = experiment: Pre-emergence biological efficacy (Table 3); conditions: 1000 g/ha, after 13 days; for pest or weed control at 1000 g/ha: Amaranthus retroflexus, 312 h, read-out: evaluation (100=total damage to plant; 0=no damage to plant)
Summary of the method: as §2

[11] = STEME, read-out: damage to plant STEME (100=total damage; 0=no damage)
[12] = ZEAMX, read-out: damage to plant ZEAMX (100=total damage; 0=no damage)
[13] = Abutilon theophrasti, ABUTH, read-out: damage to plant ABUTH (100=total damage; 0=no damage)
[14] = Amaranthus retroflexus, AMARE, read-out: damage to plant AMARE (100=total damage; 0=no damage)
[15] = Echinochloa crus-galli, ECHCG, read-out: damage to plant ECHCG (100=total damage; 0=no damage)
[16] = Ipomoea hederacea, IPOHE, read-out: damage to plant IPOHE (100=total damage; 0=no damage)

| Structure (SMILES) | score (100=total damage to plant, 0=no damage to plant) (DIGSA [1]) | score (100=total damage to plant, 0=no damage to plant) (LOLPE [4]) | score (100=total damage to plant, 0=no damage to plant) (DIGSA [5]) | score (100=total damage to plant, 0=no damage to plant) (STEME [6]) | score (100=total damage to plant, 0=no damage to plant) (AMARE [7]) | score (100=total damage to plant, 0=no damage to plant) (LOLPE [8]) | pest or weed control at 1000 g/ha (weeds and/or crops; [11]) [%] | pest or weed control at 1000 g/ha (weeds and/or crops; [12]) [%] | pest or weed control at 1000 g/ha (weeds and/or crops; [13]) [%] | pest or weed control at 1000 g/ha (weeds and/or crops; [14]) [%] | pest or weed control at 1000 g/ha (weeds and/or crops; [15]) [%] | pest or weed control at 1000 g/ha (weeds and/or crops; [16]) [%] | pest or weed control at 1000 g/ha (ABUTH) [%] | pest or weed control at 1000 g/ha (ECHCG) [%] | plant injury at 1000 g/ha (ZEAMX) [%] | pest or weed control at 1000 g/ha (STEME [9]) [%] | pest or weed control at 1000 g/ha (IPOHE) [%] | pest or weed control at 1000 g/ha (AMARE [10]) [%] | further results |
| --- | --- | --- | --- | --- | --- | --- | --- | --- | --- | --- | --- | --- | --- | --- | --- | --- | --- | --- | --- |
| C#Cc1c(Cl)cccc1C(F)(F)C(=O)O [Compound 1-291, 2-(3-Chloro-2-ethynyl-phenyl)-2,2-difluoro-acetic acid] | 90 | 80 | 70 | 80 | 100 | 0 |  |  |  |  |  |  |  |  |  |  |  |  | score (100=total damage to plant, 0=no damage to plant) (STEME [2]): 100; score (100=total damage to plant, 0=no damage to plant) (AMARE [3]): 90 |
| N#Cc1ccccc1C(F)(F)C(=O)[O-].[Li+] [Compound 5-255] | 0 | 0 | 0 | 70 | 70 | 0 |  |  |  |  |  |  |  |  |  |  |  |  | score (100=total damage to plant, 0=no damage to plant) (AMARE [3]): 20 |
| COc1cccc(C(F)(F)C(=O)O)c1 [Compound 1-6] | 0 | 0 | 0 | 20 | 80 | 0 |  |  |  |  |  |  |  |  |  |  |  |  | score (100=total damage to plant, 0=no damage to plant) (STEME [2]): 0 |
| O=C(O)C(F)(F)c1cc(Cl)cc([N+](=O)[O-])c1Cl [Compound 1-238, 2-(2,5-Dichloro-3-nitrophenyl)-2,2-difluoroaceticacid] |  |  |  |  |  |  | 40 | 0 | 0 | 30 | 0 | 0 | 0 | 0 | 0 | 0 | 0 | 0 |  |
| Nc1ccc(Cl)c(Cl)c1C(F)(F)C(=O)[O-].[Li+] [Compound 5-80, Lithium;2-(6-amino-2,3-dichloro-phenyl)-2,2-difluoro-acetate] |  |  |  |  |  |  |  |  |  |  |  |  |  |  |  |  |  |  | damage to plant AMARE (100=total damage; 0=no damage) (weeds and/or crops; AMARE): 20; damage to plant ECHCG (100=total damage; 0=no damage) (weeds and/or crops; ECHCG): 0; damage to plant IPOHE (100=total damage; 0=no damage) (weeds and/or crops; IPOHE): 10; damage to plant STEME (100=total damage; 0=no damage) (weeds and/or crops; STEME): 10; damage to plant ZEAMX (100=total damage; 0=no damage) (weeds and/or crops; ZEAMX): 10; evaluation (100=total damage to plant; 0=no damage to plant) (ABUTH; 1000 g/ha): 0; evaluation (100=total damage to plant; 0=no damage to plant) (ECHCG): 0; evaluation (100=total damage to plant; 0=no damage to plant) (ZEAMX): 0; evaluation (100=total damage to plant; 0=no damage to plant) (STEME [9]; 1000 g/ha): 0; evaluation (100=total damage to plant; 0=no damage to plant) (IPOHE): 0; evaluation (100=total damage to plant; 0=no damage to plant) (AMARE [10]): 0 |
| COc1ccc(Cl)c(C(F)(F)C(=O)O)c1 [Compound 1-62, 2-(2-Chloro-5-methoxyphenyl)-2,2-difluoroacetic acid] |  |  |  |  |  |  | 60 | 20 | 20 | 60 |  | 70 | 50 | 30 | 20 | 80 | 20 | 80 |  |
| CCOC(=O)C(F)(F)c1cccc2ccccc12 [Compound 3-397, Ethyl 2,2-difluoro-2-(1-naphthyl)acetate] | 0 | 0 | 0 | 70 | 40 | 0 | 100 | 0 | 90 | 10 | 0 | 60 | 50 | 0 | 20 | 40 | 0 | 10 | score (100=total damage to plant, 0=no damage to plant) (AMARE [3]): 0 |
| O=C(O)C(F)(F)c1cccc2nccnc12 [Compound 1-409, 2,2-Difluoro-2-(quinoxalin-5-yl)acetic acid] |  |  |  |  |  |  | 40 | 10 |  | 70 | 10 | 80 | 70 | 20 | 0 | 30 | 70 | 50 |  |
| Nc1c(Cl)cccc1C(F)(F)C(=O)O [Compound 1-252, 2-(2-Amino-3-chloro-phenyl)-2,2-difluoro-acetic acid] |  |  |  |  |  |  | 90 | 10 | 80 | 20 | 0 | 70 | 90 | 0 | 0 | 10 | 50 | 40 |  |
| Cc1noc2ccc(Cl)c(C(F)(F)C(=O)O)c12 [Compound 1-395, 2-(5-Chloro-3-methyl-1,2-benzoxazol-4-yl)-2,2-difluoro-acetic acid] |  |  |  |  |  |  | 20 | 0 | 20 | 40 | 10 | 70 | 10 | 20 | 0 | 10 | 50 | 30 |  |
| O=C(O)C(F)(F)c1cccc(Cl)c1[N+](=O)[O-] [Compound 7-250, Ammonium 2-(3-chloro-2-nitro-phenyl)-2,2-difluoro-acetate] |  |  |  |  |  |  | 100 | 20 | 90 | 100 | 30 | 80 | 90 | 30 | 50 | 100 | 90 | 100 |  |
| CSc1c(Cl)cccc1C(F)(F)C(=O)O [Compound 1-356, 2-(3-Chloro-2-(methylthio)phenyl)-2,2-difluoroacetic acid] |  |  |  |  |  |  | 70 | 10 | 60 | 40 | 0 | 70 | 30 | 0 | 10 | 30 | 50 | 50 |  |
